The values that follow are results of earlier work, collected in US20040175342A1, “Process of making and using composition containing oxidation-sensitive hydrophilic active principle and maleic anhydride copolymer” (L'OREAL, priority 2002, published 2004).

The structures appear in SMILES notation.

In data set [1] the test system is reconstructed epidermides.
The subject of data set [2] is reconstructed epidermides. The settings on record: after treatment.

Turning to `O=C1O[C@H]([C@@H](O)CO)C(O)=C1O` [Ascorbic acid, ascorbic acid], the synthesis of ceramides result in data set [1] is given as “increase”. Moreover, the “barrier function of reconstructed epidermides” value in data set [2] is “improved”. Also, in the data set with keratinocytes, the “effect on differentiation of keratinocytes” value was “prodifferentiating effect”.

Consider `O=C1O[C@H]([C@@H](O)CO)C(O)=C1O[C@H]1O[C@H](CO)[C@@H](O)[C@H](O)[C@H]1O` [ascorbyl glucoside], for which the synthesis of ceramides result in data set [1] is reported as “this effect has also been demonstrated”.

Consider `O=C1O[C@H]([C@@H](O)CO)C([O-])=C1OP(=O)([O-])[O-].O=C1O[C@H]([C@@H](O)CO)C([O-])=C1OP(=O)([O-])[O-].[Mg+2].[Mg+2].[Mg+2]` [magnesium ascorbyl phosphate], for which the bioavailability entry is “very low”. Moreover, the synthesis of ceramides result in data set [1] is “this effect has also been demonstrated”.
